Legend:
[1] = biological target: T1, 17-beta-hydroxysteroid dehydrogenase type 1 (Homo sapiens, UniProt P14061); assay: Inhibition of human 17beta-HSD1 expressed in HEK293 cell lysates incubated for 10 mins using [2,4,6,7-3H]-estrone and NADPH by scintillation counting method
T1 sequence (P14061 whole entry): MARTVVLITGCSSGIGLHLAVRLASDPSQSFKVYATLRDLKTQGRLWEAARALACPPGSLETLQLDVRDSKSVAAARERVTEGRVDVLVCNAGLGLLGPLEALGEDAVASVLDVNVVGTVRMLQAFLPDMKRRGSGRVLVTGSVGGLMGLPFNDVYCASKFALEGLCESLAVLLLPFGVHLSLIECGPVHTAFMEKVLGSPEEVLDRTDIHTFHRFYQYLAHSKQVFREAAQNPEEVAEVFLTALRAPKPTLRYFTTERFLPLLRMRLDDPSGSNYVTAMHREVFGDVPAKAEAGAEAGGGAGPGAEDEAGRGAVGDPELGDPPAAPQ

Homo sapiens = species on record: Homo sapiens; assay: Selectivity index, ratio of inhibition of human 17beta-HSD1 expressed in HEK293 cell lysates to inhibition of human 17beta-HSD2 expressed in HEK293 cell lysates
Aromatase = biological target: T2, Aromatase (Homo sapiens, UniProt P11511); assay: Inhibition of aromatase (unknown origin)
T2 sequence (P11511 whole entry): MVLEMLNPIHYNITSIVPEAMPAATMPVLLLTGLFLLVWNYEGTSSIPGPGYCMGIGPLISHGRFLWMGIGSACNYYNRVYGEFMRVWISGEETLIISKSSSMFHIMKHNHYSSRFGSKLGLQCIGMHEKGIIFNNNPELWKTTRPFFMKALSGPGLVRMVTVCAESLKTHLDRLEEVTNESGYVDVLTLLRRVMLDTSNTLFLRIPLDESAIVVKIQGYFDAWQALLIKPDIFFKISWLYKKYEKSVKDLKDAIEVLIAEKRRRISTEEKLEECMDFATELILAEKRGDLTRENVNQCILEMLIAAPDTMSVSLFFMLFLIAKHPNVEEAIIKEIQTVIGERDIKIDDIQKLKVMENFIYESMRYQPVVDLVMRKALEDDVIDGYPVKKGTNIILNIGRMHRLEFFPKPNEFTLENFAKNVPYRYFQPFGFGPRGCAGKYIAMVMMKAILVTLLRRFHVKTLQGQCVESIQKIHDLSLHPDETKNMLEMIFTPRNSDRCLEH

Estrogen receptor = biological target: T3, Estrogen receptor (Homo sapiens, UniProt P03372); assay: Displacement of estradiol from human ERalpha expressed in yeast cells; format: cell-based
T3 sequence (P03372 whole entry): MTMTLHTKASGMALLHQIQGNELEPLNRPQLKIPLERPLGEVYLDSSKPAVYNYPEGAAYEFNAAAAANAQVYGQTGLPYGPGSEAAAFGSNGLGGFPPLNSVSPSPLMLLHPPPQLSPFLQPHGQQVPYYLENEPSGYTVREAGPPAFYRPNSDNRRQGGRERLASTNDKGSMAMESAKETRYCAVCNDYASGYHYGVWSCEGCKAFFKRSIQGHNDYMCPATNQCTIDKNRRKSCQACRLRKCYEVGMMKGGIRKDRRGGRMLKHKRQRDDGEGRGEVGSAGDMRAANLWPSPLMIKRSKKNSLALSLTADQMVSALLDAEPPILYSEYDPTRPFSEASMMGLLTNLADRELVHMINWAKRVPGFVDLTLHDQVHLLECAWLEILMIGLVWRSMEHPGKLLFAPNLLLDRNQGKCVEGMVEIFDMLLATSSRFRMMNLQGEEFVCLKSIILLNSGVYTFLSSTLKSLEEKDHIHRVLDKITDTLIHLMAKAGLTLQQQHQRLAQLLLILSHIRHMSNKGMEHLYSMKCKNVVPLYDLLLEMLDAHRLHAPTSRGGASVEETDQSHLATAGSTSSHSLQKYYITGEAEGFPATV

Estrogen receptor beta = Estrogen receptor beta (Homo sapiens, UniProt Q92731); assay: Displacement of estradiol from human ERbetaa expressed in yeast cells; format: cell-based
Estrogen receptor beta, sequence (Q92731 whole entry): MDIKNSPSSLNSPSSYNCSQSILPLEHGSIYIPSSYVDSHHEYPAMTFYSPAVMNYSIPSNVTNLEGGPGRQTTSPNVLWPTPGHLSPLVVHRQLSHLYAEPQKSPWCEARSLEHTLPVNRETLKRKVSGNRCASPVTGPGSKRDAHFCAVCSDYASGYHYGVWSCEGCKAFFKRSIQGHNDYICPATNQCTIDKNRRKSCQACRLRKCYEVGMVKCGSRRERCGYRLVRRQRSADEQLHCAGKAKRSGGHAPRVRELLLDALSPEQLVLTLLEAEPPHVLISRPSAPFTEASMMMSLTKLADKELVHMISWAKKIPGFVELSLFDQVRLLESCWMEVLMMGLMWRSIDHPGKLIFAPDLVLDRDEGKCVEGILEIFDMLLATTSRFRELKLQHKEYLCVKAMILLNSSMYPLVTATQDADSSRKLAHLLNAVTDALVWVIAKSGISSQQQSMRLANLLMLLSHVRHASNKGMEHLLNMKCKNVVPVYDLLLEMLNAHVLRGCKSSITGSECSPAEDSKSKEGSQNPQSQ

| SMILES | IC50 [1] | further results |
| --- | --- | --- |
| CCOC(=O)c1ccc(O)c(OC)c1 | Not Active |  |
| O=C(Cc1ccc(O)c(Cl)c1)NCc1ccccc1 | Not Active |  |
| COc1cc(/C=C/C(=O)CC(=O)/C=C/c2ccc(O)c(OC)c2)ccc1O |  | Selectivity Index (Homo sapiens): 12 |
| O=C(Cc1ccc(O)c(Cl)c1)NCCc1ccccc1 | Not Active |  |
| O=C(Cc1ccc(O)c(Cl)c1)NCc1ccccc1Cl |  | Selectivity Index (Homo sapiens): 25 |
| O=C(/C=C/c1ccc(O)c(O)c1)O[C@H](Cc1ccc(O)c(O)c1)C(=O)O [ROSMARINIC ACID] | Not Active |  |
| O=C(Cc1ccc(O)c(Cl)c1)NCCc1c[nH]c2ccccc12 | Not Active |  |
| O=C(/C=C/c1ccc(O)cc1)c1ccc(O)cc1O [ISOLIQUIRITIGENIN] |  | IC50 (Aromatase): 3.8 µM; IC50 (Estrogen receptor): 1.87 µM; IC50 (Estrogen receptor beta): 0.269 µM |
